Earlier results, collected in patent US11944640B2, “Zinc-[gamma]-PGA compositions and methods for treating cancer” (XYLONIX PTE. LTD., priority 2016, dated 2024).

What was measured:
[1] = test system: leukocyte-originating cells, including murine thymocytes, murine splenic lymphocytes, human Ramos B, and human Jurkat T cells; conditions: nanomolar concentrations
[2] = test system: androgen-dependent LNCaP and androgen-independent PC3, DU145 prostate cancer cell lines; conditions: micromolar concentrations (1-10 μM)
rats = conditions: 9˜14 days of dietary administration (240 ppm)
[3] = test system: folate receptor (FR), FR-α and FR-β; conditions: FR-α vs FR-β

Row | Molecule | mode of cell death [1] | mode of cell death [2] | toxicity (rats) | affinity for folate receptor isoforms (selectivity) [3]
1 | zinc pyrithione | induced zinc-specific apoptosis | elicited ATP-depletion and, eventually, ERK and PKC-dependent necrosis | acute neurological toxicity | –
2 | CN(CC1CNc2nc(N)[nH]c(=O)c2N1C)c1ccc(C(=O)N[C@@H](CCC(=O)O)C(=O)O)cc1 (stereo partly shown) [DMTHF, N^5,N^10-dimethyl tetrahydrofolate] | – | – | – | higher affinity for FR-α over FR-β
